Test results reported in patent publication EP4238971A1, “SUBSTITUTED ISOXAZOLINE DERIVATIVES” (BASF SE, priority 2022, dated 2023).

Columns and labels:
Format in all cases: in vivo
Heliothis virescens = experiment: Tobacco budworm (Heliothis virescens) control, insect diet in 96-well microtiter plates; conditions: 2500ppm; egg and larval mortality visually assessed after 5 days
Method: (§1) If not otherwise specified, the test solutions were prepared as follows: The active compound was dissolved at the desired concentration in a mixture of 1:1 (vol:vol) distilled water:acetone. The test solution was prepared at the day of use.
(§2) Test solutions were prepared in general at a concentration of 2500ppm (wt/vol).
B.3. Tobacco budworm (Heliothis virescens)
For evaluating control of Tobacco Budworm, the test unit consisted of 96-well-microtiter plates containing an insect diet and 15-25 H. virescens eggs. The compounds were formulated using a solution containing 75% v/v water and 25% v/v DMSO. Different concentrations of formulated compounds were sprayed onto the insect diet at 10µl, using a custom-built micro atomizer, at two replications. After application, microtiter plates were incubated at about 28 ± 1°C and about 80 ± 5 % relative humidity for 5 days. Egg and larval mortality was then visually assessed.

Aedes aegypti = experiment: whole plant or invertebrate; conditions: 2500ppm; larval mortality visually assessed after 2 days
Method: as §1, §2
B.4. Yellow fever mosquito (Aedes aegypti)
For evaluating control of Yellow Fever Mosquito, the test unit consisted of 96-well-microtiter plates containing 200µl of tap water per well and 5-15 freshly hatched A. aegypti larvae. The active compounds were formulated using a solution containing 75% (v/v) water and 25% (v/v) DMSO. Different concentrations of formulated compounds or mixtures were sprayed onto the insect diet at 2.5µl, using a custom-built micro atomizer, at two replications.
After application, microtiter plates were incubated at 28 ± 1°C, 80 ± 5 % RH for 2 days. Larval mortality was then visually assessed.

Dichromothrips corbetti = experiment: Orchid thrips (Dichromothrips corbetti), floral-immersion technique; conditions: 300ppm; adult thrips; mortality recorded 72 hours after treatment
Method: B.6. Orchid thrips (Dichromothrips corbetti)
Dichromothrips corbetti adults used for bioassay were obtained from a colony maintained continuously under laboratory conditions. For testing purposes, the test compound was diluted in a 1:1 mixture of acetone:water (vol:vol), plus Kinetic at a rate of 0.01% v/v.
Thrips potency of each compound was evaluated by using a floral-immersion technique. Each orchid petal was dipped into treatment solution and allowed to dry in Petri dishes. Treated petals were placed into individual re-sealable plastic along with about 20 adult thrips. All test arenas were held under dark condition and a temperature of about 28°C for duration of the assay. The percent mortality was recorded 72 hours after treatment.

Spodoptera eridania = experiment: Southern armyworm (Spodoptera eridania), 2nd instar larvae, sprayed lima bean plants; conditions: 300ppm; 2nd instar larvae; assessed 4 days after treatment
Method: B.7. Southern armyworm (Spodoptera eridania), 2nd instar larvae
The active compounds were formulated by a Tecan liquid handler in 100% cyclohexanone as a 10'000 ppm solution supplied in tubes. The 10'000 ppm solution was serially diluted in 100% cyclohexanone to make interim solutions. These served as stock solutions for which final dilutions were made by the Tecan in 50% acetone:50% water (v/v) into 10 or 20ml glass vials. A nonionic surfactant (Kinetic®) was included in the solution at a volume of 0.01% (v/v). The vials were then inserted into an automated electrostatic sprayer equipped with an atomizing nozzle for application to plants/insects. Lima bean plants (variety Sieva) were grown 2 plants to a pot and selected for treatment at the 1st true leaf stage. Test solutions were sprayed onto the foliage by an automated electrostatic plant sprayer equipped with an atomizing spray nozzle. The plants were dried in the sprayer fume hood and then removed from the sprayer. Each pot was placed into perforated plastic bags with a zip closure. Ten to 11 armyworm larvae were placed into the bag and the bags zipped closed. Test plants were maintained in a growth room at about 25°C and about 20-40% relative humidity for 4 days, avoiding direct exposure to fluorescent light (14:10 light:dark photo-period) to prevent trapping of heat inside the bags. Mortality and reduced feeding were assessed 4 days after treatment, compared to untreated control plants.

Bemisia argentifolii = experiment: Silverleaf whitefly (Bemisia argentifolii) adults, sprayed cotton plants; conditions: 300 ppm; adults; assessed 3 days after treatment
Method: B.8. Silverleaf whitefly (Bemisia argentifolii) (adults)
The active compounds were formulated by a Tecan liquid handler in 100% cyclohexanone as a 10,000-ppm solution supplied in tubes. The 10,000-ppm solution was serially diluted in 100% cyclohexanone to make interim solutions. These served as stock solutions for which final dilutions were made by the Tecan in 50% acetone:50% water (v/v) into 5 or 10ml glass vials. A nonionic surfactant (Kinetic®) was included in the solution at a volume of 0.01% (v/v). The vials were then inserted into an automated electrostatic sprayer equipped with an atomizing nozzle for application to plants/insects. Cotton plants at the cotyledon stage (one plant per pot) were sprayed by an automated electrostatic plant sprayer equipped with an atomizing spray nozzle. The plants were dried in the sprayer fume hood and then removed from the sprayer. Each pot was placed into a plastic cup and about 10 to 12 whitefly adults (approximately 3-5 days old) were introduced. The insects were collected using an aspirator and a nontoxic Tygon® tubing connected to a barrier pipette tip. The tip, containing the collected insects, was then gently inserted into the soil containing the treated plant, allowing insects to crawl out of the tip to reach the foliage for feeding. Cups were covered with a reusable screened lid. Test plants were maintained in a growth room at about 25°C and about 20-40% relative humidity for 3 days, avoiding direct exposure to fluorescent light (14:10 light:dark photoperiod) to prevent trapping of heat inside the cup. Mortality was assessed 3 days after treatment, compared to untreated control plants.

Anthonomus grandis = experiment: Boll weevil (Anthonomus grandis) control, insect diet in 96-well microtiter plates; conditions: 2500ppm; egg and larval mortality visually assessed after 5 days
Method: as §1, §2
B.1. Boll weevil (Anthonomus grandis)
For evaluating control of boll weevil, the test unit consisted of 96-well-microtiter plates containing an insect diet and 5-10 A. grandis eggs.
The compounds were formulated using a solution containing 75% v/v water and 25% v/v DMSO. Different concentrations of formulated compounds were sprayed onto the insect diet at 5µl, using a custom-built micro atomizer, at two replications.
After application, microtiter plates were incubated at about 25 ± 1°C and about 75 ± 5 % relative humidity for 5 days. Egg and larval mortality were then visually assessed.

Myzus persicae = experiment: Green peach aphid (Myzus persicae), mixed life stages, systemic test via artificial diet under membrane; conditions: 2500ppm; aphid mortality visually assessed after 3 days
Method: as §1, §2
B.2. Green peach aphid (Myzus persicae) (mixed life stages)
For evaluating control of Green Peach Aphid through systemic means the test unit consisted of 96-well-microtiter plates containing liquid artificial diet under an artificial membrane. The compounds were formulated using a solution containing 75% v/v water and 25% v/v DMSO. Different concentrations of formulated compounds were pipetted into the aphid diet, using a custom-built pipette, at two replications. After application, 5 - 8 adult aphids were placed on the artificial membrane inside the microtiter plate wells. The aphids were then allowed to suck on the treated aphid diet and incubated at about 23 ± 1°C and about 50 ± 5 % relative humidity for 3 days. Aphid mortality and fecundity was then visually assessed.

Plutella xylostella = experiment: Diamond back moth (Plutella xylostella), cabbage leaf disc dip test; conditions: 300ppm; 3rd instar larvae; mortality recorded 72 hours after treatment
Method: B.5. Diamond back moth (Plutella xylostella)
The active compound was dissolved at the desired concentration in a mixture of 1:1 (vol:vol) distilled water: acetone. Surfactant (Kinetic) was added at a rate of 0.01% (vol/vol). The test solution was prepared at the day of use. Cabbage leaf discs (60mm in diameter) were dipped in test solution and air-dried. Treated leaves were placed in petri dishes lined with moistened filter paper and inoculated with ten 3rd instar larvae. Mortality was recorded 72 hours after treatment. Feeding damages were also recorded using a scale of 0-100%.

Measured: mortality in comparison with untreated controls

Fc1c(Cl)cc(C2(C(F)(F)F)CC(Nc3ccc(Cl)c(-n4ccc(C(F)(F)F)n4)c3)=NO2)cc1Cl (stereo not shown) [I-15]
at least 75%: Heliothis virescens | Aedes aegypti | Dichromothrips corbetti | Spodoptera eridania | Bemisia argentifolii

Fc1c(Cl)cc(C2(C(F)(F)F)CC(Nc3ccc(Cl)c(-n4cncn4)c3)=NO2)cc1Cl (stereo not shown) [I-13]
not listed: Dichromothrips corbetti
at least 75%: all other assays above

CCOC(=O)N(C1=NOC(c2cc(Cl)c(F)c(Cl)c2)(C(F)(F)F)C1)c1ccc(Cl)c(-n2cncn2)c1 (stereo not shown) [I-25]
not listed: Anthonomus grandis | Myzus persicae
at least 75%: all other assays above

CN(C1=NOC(c2ccc(F)c(Cl)c2)(C(F)(F)F)C1)c1ccc(C#N)c(-n2cncn2)c1 (stereo not shown) [I-9]
not listed: Bemisia argentifolii
at least 75%: all other assays above

N#Cc1ccc(NC2=NOC(c3ccc(F)c(C(F)(F)F)c3)(C(F)(F)F)C2)cc1-n1cncn1 (stereo not shown) [I-8]
at least 75%: Plutella xylostella | Dichromothrips corbetti | Spodoptera eridania | Bemisia argentifolii

N#Cc1ccc(NC2=NOC(c3cccc(C(F)(F)F)c3)(C(F)(F)F)C2)cc1-n1cncn1 (stereo not shown) [I-5]
not listed: Bemisia argentifolii
at least 75%: all other assays above

CN(C1=NOC(c2cc(Cl)cc(Cl)c2)(C(F)(F)F)C1)c1ccc(C#N)c(-n2cncn2)c1 (stereo not shown) [I-7]
not listed: Bemisia argentifolii
at least 75%: all other assays above

C#CCN(C1=NOC(c2ccc(F)c(Cl)c2)(C(F)(F)F)C1)c1ccc(C#N)c(-n2cncn2)c1 (stereo not shown) [I-12]
not listed: Bemisia argentifolii
at least 75%: all other assays above

CCN(C1=NOC(c2ccc(F)c(Cl)c2)(C(F)(F)F)C1)c1ccc(C#N)c(-n2cncn2)c1 (stereo not shown) [I-10]
not listed: Bemisia argentifolii
at least 75%: all other assays above

CCN(C1=NOC(c2cc(Cl)c(F)c(Cl)c2)(C(F)(F)F)C1)c1ccc(Cl)c(-n2cncn2)c1 (stereo not shown) [I-19]
not listed: Bemisia argentifolii
at least 75%: all other assays above
